Columns and labels:
[1] = test system: U251MG human glioma cells; assay: In-vitro anti-cancer activity screening, SRB method, U251MG; format: cell-based; settings: U-251
Description: (§1) Referring to the method of example 9, two tumor cell lines, U251MG and U251TR human glioma cells, were selected, and temozolomide and the compounds of the present disclosure were subjected to in-vitro anti-cancer activity screening using the SRB method.

human glioma cell U87 [2] = assay: Pharmacodynamic study in human glioma cell U87 subcutaneous model; format: in vivo, Balb/c nude mice; settings: compounds 20 mg/Kg, q.d.×14 days
Source text: The route of administration was intragastric administration ([…]., q.d.×14 days).

human glioma cells (U87) = assay: In-vitro growth inhibition, MTT method, U87; format: cell-based; settings: Glioma cell, 48 h
Description: (§2) The in-vitro growth inhibitory activity of compounds 1 to 8 of the present disclosure against human glioma cells (U87 and LN229), human hepatoma cells (SMMC-7721) and human pancreatic carcinoma cells (Panc1) was studied adopting the MTT method.
U87, LN229, SMMC-7721 and Panc1 cells growing at log phase were separately inoculated into a 96-well plate at a density of 5×10^4 cells/mL, 180 μL/well. […] After 48 h of action, a 5 mg/mL MTT solution (20 μL/well) was added. After the cells were incubated in a CO2 incubator for 3 to 4 h, the supernatant was carefully discarded. After the residual liquid was air-dried, acidified isopropanol (50 μL of concentrated hydrochloric acid dissolved in 500 mL of isopropanol) was added at […], and the plate was shaken on a shaker for 30 min. After the crystals were completely dissolved, absorbance OD values were measured by a microplate reader at 570 nm.
(§3) Cell viability %=(drug-treated cell OD−blank group OD)/(control cell OD−blank group OD)×100
(§4) Cell killing rate %=1−cell viability %

[3] = test system: U251TR human glioma cells; assay: In-vitro anti-cancer activity screening, SRB method, U251TR; format: cell-based; settings: Glioma cell, drug-resistant strain
Description: as §1

[4] = test system: human pancreatic carcinoma cells (Panc1); assay: In-vitro growth inhibition, MTT method, Panc1; format: cell-based; settings: PANC-1, 48 h
Description: as §2
(§5) U87, LN229, SMMC-7721 and Panc1 cells growing at log phase were separately inoculated into a 96-well plate at a density of 5×10^4 cells/mL, 180 μL/well. After the cells were attached to the wall, 20 μL of a drug liquid was added to each well, so that the final concentrations of the drug were 0 μM, 5 μM, 10 μM, 20 μM and 50 μM. After 48 h of action, a 5 mg/mL MTT solution (20 μL/well) was added. After the cells were incubated in a CO2 incubator for 3 to 4 h, the supernatant was carefully discarded. After the residual liquid was air-dried, acidified isopropanol (50 μL of concentrated hydrochloric acid dissolved in 500 mL of isopropanol) was added at […], and the plate was shaken on a shaker for 30 min. After the crystals were completely dissolved, absorbance OD values were measured by a microplate reader at 570 nm.
as §3, §4

[5] = test system: human hepatoma cells (SMMC-7721); assay: In-vitro growth inhibition, MTT method, SMMC-7721; format: cell-based; settings: 48 h
Description: as §2, §5, §3, §4

human glioma cell U87 [6] = assay: Tumor volume inhibition rate, i.v. dosing; format: in vivo, Balb/c nude mice; settings: Mus musculus, iv, TMZ 10 mg·kg^−1, i.v.
Description: In addition, low-dosage 0409 (20 mg·kg^−1, i.v.) and TMZ (10 mg·kg^−1, i.v.) were synchronously used for an assay to determine the volume tumor inhibition rate.

[7] = test system: human glioma cells (LN229); assay: In-vitro growth inhibition, MTT method, LN229; format: cell-based; settings: LN-229, 48 h
Description: as §2, §5, §3, §4

[8] = 240 h, Day 10, 20 mg·kg^−1, i.v.
[9] = 264 h, Day 11, 20 mg·kg^−1, i.v.
[10] = 288 h, Day 12, 20 mg·kg^−1, i.v.
[11] = 312 h, Day 13, 20 mg·kg^−1, i.v.
[12] = 336 h, Day 14, 20 mg·kg^−1, i.v.
[13] = 360 h, Day 15, 20 mg·kg^−1, i.v.
[14] = 384 h, Day 16, 20 mg·kg^−1, i.v.
[15] = 408 h, Day 17, 20 mg·kg^−1, i.v.
[16] = 432 h, Day 18, 20 mg·kg^−1, i.v.

| Compound | IC50 [1] | Tumor inhibition rate (human glioma cell U87 [2]; Day 1) | Tumor inhibition rate (human glioma cell U87 [2]; Day 4) | Tumor inhibition rate (human glioma cell U87 [2]; Day 7) | Tumor inhibition rate (human glioma cell U87 [2]; Day 10) | Tumor inhibition rate (human glioma cell U87 [2]; Day 14 (end of the experiment)) | IC50 (human glioma cells (U87)) | IC50 [3] | IC50 [4] | IC50 [5] | inhibition in vivo at 20 mg/kg (human glioma cell U87 [6]; [8]) | inhibition in vivo at 20 mg/kg (human glioma cell U87 [6]; [9]) | inhibition in vivo at 20 mg/kg (human glioma cell U87 [6]; [10]) | inhibition in vivo at 20 mg/kg (human glioma cell U87 [6]; [11]) | inhibition in vivo at 20 mg/kg (human glioma cell U87 [6]; [12]) | inhibition in vivo at 20 mg/kg (human glioma cell U87 [6]; [13]) | inhibition in vivo at 20 mg/kg (human glioma cell U87 [6]; [14]) | inhibition in vivo at 20 mg/kg (human glioma cell U87 [6]; [15]) | inhibition in vivo at 20 mg/kg (human glioma cell U87 [6]; [16]) | IC50 [7] |
| --- | --- | --- | --- | --- | --- | --- | --- | --- | --- | --- | --- | --- | --- | --- | --- | --- | --- | --- | --- | --- |
| Cn1nnc2c(C(=O)NCCn3[se]c4cc(F)ccc4c3=O)ncn2c1=O [Compound 3, 3,4-dihydro-3-methyl-4-oxo-N-(3(2H)-oxo-6-fluoro-1,2-benzisoselenazol-2-yl)-ethyl-imidazo[5,1-d]-1,2,3,5-tetrazine-8-carboxamide] | 15.4 ± 1.25 µM | −9.91% | 47.90% | 87.76% | 91.47% | 88.01% | 20.4 ± 7.19 µM | 35.5 ± 4.97 µM | 7 ± 8.3 µM | 25.4 ± 7.19 µM | 57.9% | 67.1% | 68.4% | 58.8% | 72.3% | 72.7% | 78.6% | 74.8% | 73.8% | 19 ± 1.3 µM |
| COc1ccc2[se]n(CCNC(=O)c3ncn4c(=O)n(C)nnc34)c(=O)c2c1 [Compound 7, 3,4-dihydro-3-methyl-4-oxo-N-(3(2H)-oxo-5-methoxy-1,2-benzisoselenazol-2-yl)-ethyl-imidazo[5,1-d]-1,2,3,5-tetrazine-8-carboxamide] | 154 ± 5.64 µM |  |  |  |  |  | 47 ± 2.88 µM | > 500 µM | 15.7 ± 6.22 µM | 27 ± 3.22 µM | 22% | 29.7% | 37.5% | 48% | 45.5% | 51.4% | 59.7% | 46.3% | 54.7% | 21.2 ± 1.28 µM |
| Cn1nnc2c(C(=O)NCCn3[se]c4ccc(Cl)cc4c3=O)ncn2c1=O [Compound 4, 3,4-dihydro-3-methyl-4-oxo-N-(3(2H)-oxo-5-chloro-1,2-benzisoselenazol-2-yl)-ethyl-imidazo[5,1-d]-1,2,3,5-tetrazine-8-carboxamide] | 126 ± 13.3 µM |  |  |  |  |  | 134 ± 15.8 µM | > 500 µM | 24.2 ± 11.9 µM | 5.6 ± 5.84 µM | 73.5% | 75.2% | 74.5% | 68.8% | 74% | 80.6% | 84.3% | 84.7% | 81% | 44.1 ± 6.09 µM |

Source: patent US20230167120A1, “ARYL-FUSED ISOSELENAZOLE COMPOUND CONTAINING TETRAZINE SUBSTITUENT, SYNTHESIS METHOD THEREFOR, AND USE THEREOF” (KEAISE MEDICINE WUHAN CORP., priority 2020, published 2023)
